According to patent US11655268B2, “Nucleoside or nucleotide derivatives, and uses thereof” (ST Pharm Co., Ltd., priority 2018, dated 2023):
pEC50: −log10 of the molar value. Structures can show the parent of a compound that is named as a salt.

Key:
[1] = system: DENV; experiment: Reduction in viral infection, dengue virus in Vero cells, immunofluorescence (4G2 antibody); assay type: cell-based, Dengue virus New Guinea C (NGC); conditions: 72 h, read-out: EC50 DENV
[2] = Cytotoxicity (CC50) in Vero cells; conditions: African green monkey, CC50 (DENV), Vero cells, DENV test
[3] = system: MERS-CoV; experiment: microbe, parasite or virus in culture; assay type: cell-based, MERS virus (MERS-CoV/KOR/KNIH/002_05_2015); conditions: Middle East respiratory syndrome-related coronavirus, Huh-7, 72 h, read-out: EC50 MERS-CoV
[4] = in vitro; conditions: human
[5] = system: Influenza virus B/Lee/40; experiment: Cytopathic effect reduction, influenza B Lee in MDCK cells, MTT; assay type: cell-based; conditions: for Selectivity index FluB Lee: CC50/EC50; for pEC50: MDCK, 72 h, read-out: Anti-Flu activity EC50 FluB Lee
[6] = in vitro; conditions: dog

SMILES: O=C(Nc1ccn(C2O[C@H](CO)[C@@H](O)[C@H]2F)c(=O)n1)c1cccnc1 (stereo in doubt) [Example 26, N-(1-((2S,3R,4R,5R)-3-fluoro-4-hydroxy-5-(hydroxymethyl)tetrahydrofuran-2-yl)-2-oxo-1,2-dihydropyrimidin-4-yl)nicotinamide]
- pEC50 [1]: 4.24
- CC50 at 3 days [2]: > 100 µM

SMILES: Cc1ccc(C(=O)Nc2ccn(C3O[C@H](CO)[C@@H](O)[C@H]3F)c(=O)n2)cn1 (stereo in doubt) [Example 32, N-(1-((2S,3R,4R,5R)-3-fluoro-4-hydroxy-5-(hydroxymethyl)tetrahydrofuran-2-yl)-2-oxo-1,2-dihydropyrimidin-4-yl)-6-methylnicotinamide]
- pEC50 [3]: < 4.00
- CC50 at 3 days [4]: > 100 µM

SMILES: Cc1cncc(C(=O)Nc2ccn(C3O[C@H](CO)[C@@H](O)[C@H]3F)c(=O)n2)n1 (stereo in doubt) [Example 34, N-(1-((2S,3R,4R,5R)-3-fluoro-4-hydroxy-5-(hydroxymethyl)tetrahydrofuran-2-yl)-2-oxo-1,2-dihydropyrimidin-4-yl)-6-methylpyrazine-2-carboxamide]
- Selectivity index FluB Lee [5]: >9.0
- pEC50 [5]: 4.95
- pEC50 [3]: < 4.00
- CC50 at 3 days [6]: > 100 µM
- CC50 at 3 days [4]: > 100 µM

SMILES: O=C(Nc1ccn(C2O[C@H](CO)[C@@H](O)[C@H]2F)c(=O)n1)c1ccc(C(F)(F)F)nc1 (stereo in doubt) [Example 41, N-(1-((2S,3R,4R,5R)-3-fluoro-4-hydroxy-5-(hydroxymethyl)tetrahydrofuran-2-yl)-2-oxo-1,2-dihydropyrimidin-4-yl)-6-(trifluoromethyl)nicotinamide]
- Selectivity index FluB Lee [5]: >5.3
- pEC50 [5]: 4.72
- CC50 at 3 days [6]: > 100 µM

SMILES: O=C(Nc1ccn(C2O[C@H](CO)[C@@H](O)[C@H]2F)c(=O)n1)c1ccc(F)nc1 (stereo in doubt) [Example 42, 6-Fluoro-N-(1-((2S,3R,4R,5R)-3-fluoro-4-hydroxy-5-(hydroxymethyl)tetrahydrofuran-2-yl)-2-oxo-1,2-dihydropyrimidin-4-yl)nicotinamide]
- Selectivity index FluB Lee [5]: >5.5
- pEC50 [5]: 4.74
- CC50 at 3 days [6]: > 100 µM

SMILES: NC12CC3CC(CC(C3)C1)C2 [AMT, amantadine hydrochloride, reference compound]
- pEC50 [5]: < 4.00
- CC50 [6]: > 100 µM

SMILES: O=C(Nc1ccn([C@@H]2O[C@H](CO)[C@@H](O)C2(F)F)c(=O)n1)c1ccc(C(F)(F)F)nc1 [Example 14, N-(1-((2R,4R,5R)-3,3-difluoro-4-hydroxy-5-(hydroxymethyl)tetrahydrofuran-2-yl)-2-oxo-1,2-dihydropyrimidin-4-yl)-6-(trifluoromethyl)nicotinamide]
- Selectivity index FluB Lee [5]: >32.3
- pEC50 [5]: 5.51
- CC50 at 3 days [6]: > 100 µM

SMILES: Cn1cc(C(=O)Nc2ccn([C@@H]3O[C@H](CO)[C@@H](O)C3(F)F)c(=O)n2)cn1 [Example 15, N-(1-((2R,4R,5R)-3,3-difluoro-4-hydroxy-5-(hydroxymethyl)tetrahydrofuran-2-yl)-2-oxo-1,2-dihydropyrimidin-4-yl)-1-methyl-1H-pyrazole-4-carboxamide]
- Selectivity index FluB Lee [5]: 12.5
- pEC50 [5]: 5.10
- CC50 at 3 days [6]: > 100 µM

SMILES: O=C(Nc1ccn([C@@H]2O[C@H](CO)[C@@H](O)C2(F)F)c(=O)n1)c1cccc(-c2ccccc2)n1 [Example 17, N-(1-((2R,4R,5R)-3,3-difluoro-4-hydroxy-5-(hydroxymethyl)tetrahydrofuran-2-yl)-2-oxo-1,2-dihydropyrimidin-4-yl)-6-phenylpicolinamide]
- Selectivity index FluB Lee [5]: >41.7
- pEC50 [5]: 5.62
- pEC50 [1]: > 5.92
- CC50 at 3 days [6]: > 100 µM
- CC50 at 3 days [2]: 58.9 µM

SMILES: O=C(Nc1ccn([C@@H]2O[C@H](CO)[C@@H](O)C2(F)F)c(=O)n1)c1ccc([N+](=O)[O-])cn1 [Example 19, N-(1-((2R,4R,5R)-3,3-difluoro-4-hydroxy-5-(hydroxymethyl)tetrahydrofuran-2-yl)-2-oxo-1,2-dihydropyrimidin-4-yl)-5-nitropicolinamide]
- Selectivity index FluB Lee [5]: >83.3
- pEC50 [5]: > 5.92
- pEC50 [1]: > 5.92
- CC50 at 3 days [6]: > 100 µM
- CC50 at 3 days [2]: < 1.2 µM

SMILES: Cl.Nc1ccc(C(=O)Nc2ccn([C@@H]3O[C@H](CO)[C@@H](O)C3(F)F)c(=O)n2)nc1 [Example 20, 5-amino-N-(1-((2R,4R,5R)-3,3-difluoro-4-hydroxy-5-(hydroxymethyl)tetrahydrofuran-2-yl)-2-oxo-1,2-dihydropyrimidin-4-yl)picolinamide-hydrochloride]
- Selectivity index FluB Lee [5]: >5.1
- pEC50 [5]: 4.71
- pEC50 [1]: 5.80
- CC50 [6]: > 100 µM
- CC50 at 3 days [2]: 75.9 µM

SMILES: COc1ccc(C(=O)Nc2ccn([C@@H]3O[C@H](CO)[C@@H](O)C3(F)F)c(=O)n2)nc1 [Example 21, N-(1-((2R,4R,5R)-3,3-difluoro-4-hydroxy-5-(hydroxymethyl)tetrahydrofuran-2-yl)-2-oxo-1,2-dihydropyrimidin-4-yl)-5-methoxypicolinamide]
- Selectivity index FluB Lee [5]: >4.5
- pEC50 [5]: 4.65
- pEC50 [1]: 5.89
- CC50 at 3 days [6]: > 100 µM
- CC50 at 3 days [2]: > 100 µM

SMILES: COc1ccc(C(=O)Nc2ccn([C@@H]3O[C@H](CO)[C@@H](O)C3(F)F)c(=O)n2)cn1 [Example 22, N-(1-((2R,4R,5R)-3,3-difluoro-4-hydroxy-5-(hydroxymethyl)tetrahydrofuran-2-yl)-2-oxo-1,2-dihydropyrimidin-4-yl)-6-methoxynicotinamide]
- Selectivity index FluB Lee [5]: >4.1
- pEC50 [5]: 4.61
- pEC50 [1]: > 5.92
- CC50 at 3 days [6]: > 100 µM
- CC50 at 3 days [2]: < 1.2 µM

SMILES: O=C(Nc1ccn([C@@H]2O[C@H](CO)[C@@H](O)C2(F)F)c(=O)n1)c1ccc(Cl)nc1 [Example 23, 6-Chloro-N-(1-((2R,4R,5R)-3,3-difluoro-4-hydroxy-5-(hydroxymethyl)tetrahydrofuran-2-yl)-2-oxo-1,2-dihydropyrimidin-4-yl)nicotinamide]
- Selectivity index FluB Lee [5]: >16.1
- pEC50 [5]: 5.21
- pEC50 [1]: > 5.92
- CC50 at 3 days [6]: > 100 µM
- CC50 at 3 days [2]: < 1.2 µM

SMILES: Cc1nccc(C(=O)Nc2ccn([C@@H]3O[C@H](CO)[C@@H](O)C3(F)F)c(=O)n2)n1 [Example 24, N-(1-((2R,4R,5R)-3,3-difluoro-4-hydroxy-5-(hydroxymethyl)tetrahydrofuran-2-yl)-2-oxo-1,2-dihydropyrimidin-4-yl)-2-methylpyrimidin-4-carboxamide]
- Selectivity index FluB Lee [5]: >83
- pEC50 [5]: > 5.92
- pEC50 [1]: > 5.92
- CC50 at 3 days [6]: > 100 µM
- CC50 at 3 days [2]: 55.4 µM

SMILES: O=C(Nc1ccn([C@@H]2O[C@H](CO)[C@@H](O)C2(F)F)c(=O)n1)c1ccc(-c2ccccc2)cn1 [Example 25, N-(1-((2R,4R,5R)-3,3-difluoro-4-hydroxy-5-(hydroxymethyl)tetrahydrofuran-2-yl)-2-oxo-1,2-dihydropyrimidin-4-yl)-5-phenylpicolinamide]
- Selectivity index FluB Lee [5]: >16.4
- pEC50 [5]: 5.21
- pEC50 [1]: > 5.92
- CC50 at 3 days [6]: > 100 µM
- CC50 at 3 days [2]: 29.5 µM

SMILES: CCC(CC)O[C@@H]1C=C(C(=O)O)C[C@H](N)[C@H]1NC(C)=O [OSV-C, oseltamivir carboxylate, reference compound]
- pEC50 [5]: 5.84

SMILES: NC(=O)c1ncn([C@@H]2O[C@H](CO)[C@@H](O)[C@H]2O)n1 [RBV, ribavirin, reference compound]
- pEC50 [5]: 4.39
